Measurements as given in ChEMBL document CHEMBL1201862, “PubChem BioAssay data set” (2004).
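48-hour exposure; five concentrations; linearly interpolated endpoints. Abbreviation: GI50, concentration required for 50% inhibition of growth.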 Calls of active or inactive are those of the source. Rule as the data show it: active = GI50 up to about 1.1 µM and inactive = higher.

Tests used:
Experiment in all cases: NCI tumour cell line growth inhibition, 48 h
COLO 205 = system: COLO 205
SR = system: SR
NCI-H522 = system: NCI-H522
KM12 = system: KM12
IGROV-1 = system: IGROV-1
UACC-62 = system: UACC-62
M14 = system: M14
SF-295 = system: SF-295
K562 = system: K562
OVCAR-5 = system: OVCAR-5
TK-10 = system: TK-10
HCT-15 = system: HCT-15
OVCAR-3 = system: OVCAR-3
SNB-19 = system: SNB-19
MDA-N = system: MDA-N
T47D = system: T47D
PC-3 = system: PC-3
SK-MEL-2 = system: SK-MEL-2

| SMILES | GI50 (COLO 205) | GI50 (SR) | GI50 (NCI-H522) | GI50 (KM12) | GI50 (IGROV-1) | GI50 (UACC-62) | GI50 (M14) | GI50 (SF-295) | GI50 (K562) | GI50 (OVCAR-5) | GI50 (TK-10) | GI50 (HCT-15) | GI50 (OVCAR-3) | GI50 (SNB-19) | GI50 (MDA-N) | GI50 (T47D) | GI50 (PC-3) | GI50 (SK-MEL-2) |
| --- | --- | --- | --- | --- | --- | --- | --- | --- | --- | --- | --- | --- | --- | --- | --- | --- | --- | --- |
| CCCCN(CCCC)CC(C(=O)Nc1ccccc1)/C(C)=N\NC(=O)c1ccncc1 (centres undefined) | > 100 µM (inactive) | > 100 µM (inactive) | > 100 µM (inactive) | > 100 µM (inactive) | > 100 µM (inactive) | 59.3 µM (inactive) | > 100 µM (inactive) | > 100 µM (inactive) | > 100 µM (inactive) | > 100 µM (inactive) | > 100 µM (inactive) | > 100 µM | 64.7 µM (inactive) | > 100 µM (inactive) |  |  |  |  |
| COc1ccc(C(=O)/C=C/c2ccc(OCCCOc3ccc(/C=C/C(=O)c4ccc(OC)c(OC)c4)cc3)cc2)cc1OC | > 100 µM (inactive) | > 100 µM (inactive) |  | > 100 µM (inactive) | > 100 µM (inactive) | > 100 µM (inactive) | > 100 µM (inactive) | > 100 µM (inactive) | > 100 µM (inactive) |  | > 100 µM (inactive) | > 100 µM |  | > 100 µM (inactive) | > 100 µM (inactive) | > 100 µM (inactive) | > 100 µM (inactive) | > 100 µM (inactive) |
| C=C(C)[C@@]1(O)CCCC[C@@H]1CC(Sc1ccccc1)Sc1ccccc1 | 16.4 µM (inactive) | 14.1 µM (inactive) | 11.7 µM (inactive) | 14.2 µM (inactive) | 16.4 µM (inactive) | 41.9 µM (inactive) | 17.9 µM (inactive) | 16.6 µM (inactive) | 14.2 µM (inactive) | 16.3 µM (inactive) | 15.5 µM (inactive) | 15 µM |  | 18.5 µM (inactive) | 20 µM (inactive) | 12.4 µM (inactive) | 16.3 µM (inactive) | 12.8 µM (inactive) |
| CCOC(=O)c1[nH]c(-c2[nH]c(-c3[nH]c(-c4[nH]c(C(=O)OCC)c(C)c4C(=O)OCC)c(C(=O)OCC)c3C)c(C)c2C(=O)OCC)c(C(=O)OCC)c1C | > 100 µM (inactive) |  | > 100 µM (inactive) | > 100 µM (inactive) | > 100 µM (inactive) | > 100 µM (inactive) | > 100 µM (inactive) | > 100 µM (inactive) | > 100 µM (inactive) | > 100 µM (inactive) | > 100 µM (inactive) | > 100 µM | > 100 µM (inactive) | > 100 µM (inactive) | > 100 µM (inactive) | > 100 µM (inactive) | > 100 µM (inactive) | > 100 µM (inactive) |
| Cc1cc(O)cc(O)c1C(=O)O[C@]1(C)C(=O)C=C2C=C(/C=C/C(=O)O)OC=C2C1=O | > 100 µM (inactive) | 42.2 µM (inactive) |  | 41.7 µM (inactive) | > 100 µM (inactive) | > 100 µM (inactive) | > 100 µM (inactive) | > 100 µM (inactive) | > 100 µM (inactive) | > 100 µM (inactive) | 45.6 µM (inactive) | > 100 µM | > 100 µM (inactive) | > 100 µM (inactive) | > 100 µM (inactive) | > 100 µM (inactive) | > 100 µM (inactive) | > 100 µM (inactive) |
| O=C(/C=C\c1ccccc1)N1CCc2ccccc2C1 | 20.6 µM (inactive) | 24.1 µM (inactive) |  | 36.5 µM (inactive) | 73.8 µM (inactive) | 43.4 µM (inactive) | 60.5 µM (inactive) | 34.9 µM (inactive) | 19.4 µM (inactive) |  | > 100 µM (inactive) | 55.8 µM |  | 67.8 µM (inactive) |  | 20.1 µM (inactive) | 34.4 µM (inactive) | 31.3 µM (inactive) |
